Values quoted from earlier work in patent publication US7662360B2, “Conjugates of N-hydroxypropymethacrylamide-methacrylate copolymer with nuclide activation agent and/or anti-cancer compounds” (Psimei Pharmaceuticals PLC, priority 2002, dated 2010).

Settings: dose BPA 900-1200 mg/kg (30 mg/ml), CuTCPH 200 mg/kg (6 mg/ml), BSH dose not given

Absolute tumour concentration | Molecule
16.5 µg/g | N[C@@H](Cc1ccc(B(O)O)cc1)C(=O)O [BPA, 4-dihydroxyborylphenylalanine]
6.9 µg/g | sodium mnercaptoundecahydrododecaborate [BSH]
